Results published in US7468357B2, “Nucleosides with anti-hepatitis B virus activity” (Emory University, priority 1994, dated 2008).
Where two headings read alike, the source gives them in different places.

How the values were obtained:
[1] = system: 2.2.15 cells (HepG2 cells transformed with hepatitis virion); assay: Toxicity analysis by uptake of neutral red dye in 2.2.15 cell cultures
Procedure: (§1) Toxicity analyses were performed in order to assess whether any observed antiviral effects were due to a general effect on cell viability. The method used was based on the uptake of neutral red dye, a standard and widely used assay for cell viability in a variety of virus-host systems, including HSV (herpes simplex virus) and HIV. The test compounds were used in the form of 40 mM stock solutions in DMSO (frozen on dry ice). Daily aliquots of the test samples were made and frozen at −20° C. so that each individual aliquot would be subjected to a single freeze-thaw cycle. The daily test aliquots were thawed, suspended into culture medium at room temperature and immediately added to the cell cultures. The compounds were tested at 0.01 to 10 μM for antiviral activity. The compounds were tested for toxicity at concentrations from 1 to 300 μM.
(§2) Toxicity analyses were performed in 96-well flat bottomed tissue culture plates. Cells for the toxicity analyses were cultured and treated with test compounds with the same schedule as used for the antiviral evaluations. Each compound was tested at 4 concentrations, each in triplicate cultures. Uptake of neutral red dye was used to determine the relative level of toxicity. The absorbance of internalized dye at […] (A510) was used for the quantitative analysis. Values are presented as a percentage of the average A510 values (± standard deviations) in 9 separate cultures of untreated cells maintained on the same 96-well plate as the test compounds.

Hepatitis B virus = assay: Inhibition of HBV replication in transfected HepG-2 (2.2.15) cells (HBV virion DNA and replicative intermediates, blot hybridization); type: cell-based; conditions: for Selectivity Index IC50/EC50 RI: cytotoxicity IC50 / RI EC50; for Selectivity Index IC50/EC50 Virion: cytotoxicity IC50 / virion EC50; for Selectivity Index IC50/EC90 RI: cytotoxicity IC50 / RI EC90; for Selectivity Index IC50/EC90 Virion: cytotoxicity IC50 / virion EC90; for Inhibition of HBV replication (depression of HBV virion DNA and HBV RI), in words: 2.2.15 cells
Procedure: The assay used herein to evaluate the ability of the disclosed compounds to inhibit the replication of HBV is described in detail in Korba and Gerin, Antiviral Res. 19: 55-70 (1992). […] The toxicity and anti-HBV activity of (−)-β-L-2-hydroxymethyl-5-(5-fluorocytosin-1-yl)-1,3-oxathiolane ((−)-β-L-FTC) and β-D-2′,3′-dideoxycytidine (β-D-ddC) are included as controls. The other compounds disclosed herein can be evaluated similarly.
The antiviral evaluations were performed on two separate passages of cells, two cultures per passage (4 cultures total). All wells, in all plates, were seeded at the same density and at the same time.
(Korba and Gerin, Antiviral Res. 19: 55-70, 1992). The levels of integrated HBV DNA in each cellular DNA preparation (which remain constant on a per cell basis in these experiments) were used to calculate the levels of intracellular HBV DNA forms, thereby eliminating technical variations inherent in the blot hybridization assays.
as §1

[2] = target: woodchuck hepatitis virus DNA polymerase (Woodchuck hepatitis B virus, UniProt P03160); assay: Inhibition of woodchuck hepatitis virus DNA polymerase by triphosphates; type: biochemical; conditions: read-out: WHB DNA Pol IC50
human DNA polymerase β = human DNA polymerase β (Homo sapiens, UniProt P06746); assay: Inhibition of human DNA polymerase β by triphosphates; type: biochemical; conditions: read-out: DNA Pol β Ki
human DNA polymerase α = target: T1, human DNA polymerase α (Homo sapiens, UniProt P09884); assay: Inhibition of human DNA polymerase α by triphosphates; type: biochemical; conditions: read-out: DNA Pol α Ki
T1 sequence (P09884 1-1462): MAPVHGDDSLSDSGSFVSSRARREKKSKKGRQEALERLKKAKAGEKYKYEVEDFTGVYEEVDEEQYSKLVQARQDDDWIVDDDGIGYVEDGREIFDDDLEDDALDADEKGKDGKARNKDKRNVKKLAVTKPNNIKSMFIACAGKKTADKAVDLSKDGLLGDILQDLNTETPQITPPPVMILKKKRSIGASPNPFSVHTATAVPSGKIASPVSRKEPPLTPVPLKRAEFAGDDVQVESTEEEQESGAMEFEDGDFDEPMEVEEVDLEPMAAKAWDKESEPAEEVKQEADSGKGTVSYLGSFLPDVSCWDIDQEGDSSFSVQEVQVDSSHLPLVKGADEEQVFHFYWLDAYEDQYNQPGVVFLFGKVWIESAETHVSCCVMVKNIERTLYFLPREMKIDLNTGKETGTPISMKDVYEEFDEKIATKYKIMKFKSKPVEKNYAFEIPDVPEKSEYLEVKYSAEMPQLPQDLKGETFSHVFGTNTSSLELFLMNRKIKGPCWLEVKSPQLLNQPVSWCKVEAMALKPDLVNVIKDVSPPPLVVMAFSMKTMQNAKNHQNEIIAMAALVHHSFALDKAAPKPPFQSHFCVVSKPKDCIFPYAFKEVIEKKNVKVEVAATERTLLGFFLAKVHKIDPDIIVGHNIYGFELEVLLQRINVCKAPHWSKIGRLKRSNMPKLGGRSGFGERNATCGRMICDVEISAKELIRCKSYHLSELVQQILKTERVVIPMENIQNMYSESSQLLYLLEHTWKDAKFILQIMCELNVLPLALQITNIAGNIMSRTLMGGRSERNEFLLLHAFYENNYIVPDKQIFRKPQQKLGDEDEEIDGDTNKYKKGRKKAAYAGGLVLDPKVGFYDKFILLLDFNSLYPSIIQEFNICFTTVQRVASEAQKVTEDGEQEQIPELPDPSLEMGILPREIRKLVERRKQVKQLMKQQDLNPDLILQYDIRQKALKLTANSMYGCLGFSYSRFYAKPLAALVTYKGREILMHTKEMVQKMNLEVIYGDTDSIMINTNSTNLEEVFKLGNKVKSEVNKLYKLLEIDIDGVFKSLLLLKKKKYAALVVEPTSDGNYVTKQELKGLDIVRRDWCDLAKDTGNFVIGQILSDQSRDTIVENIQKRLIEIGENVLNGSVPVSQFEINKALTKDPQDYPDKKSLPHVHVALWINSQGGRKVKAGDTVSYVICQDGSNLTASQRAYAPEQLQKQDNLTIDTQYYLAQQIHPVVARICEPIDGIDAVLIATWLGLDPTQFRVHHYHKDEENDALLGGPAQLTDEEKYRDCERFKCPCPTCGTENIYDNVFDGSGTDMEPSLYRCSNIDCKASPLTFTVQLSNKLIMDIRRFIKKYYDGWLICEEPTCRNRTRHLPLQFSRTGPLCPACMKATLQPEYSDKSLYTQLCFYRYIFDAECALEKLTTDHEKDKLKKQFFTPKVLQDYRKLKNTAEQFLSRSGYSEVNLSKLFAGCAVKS

[3] = Toxicity analysis by uptake of neutral red dye in 2.2.15 cell cultures; conditions: human
Procedure: as §1, §2

[4] = read-out: Cytotoxicity IC50, Table 2, Hep G-2 (2.2.15) cells
[5] = Table 2, extracellular DNA, transfected Hep G-2 (2.2.15) cells, read-out: HBV Virion EC50
[6] = Table 2, replicative intermediates (intracellular DNA), transfected Hep G-2 (2.2.15) cells, read-out: HBV RI EC50
[7] = read-out: Cytotoxity IC50 ± SD, Table 1, neutral red dye uptake, 2.2.15 cells
[8] = Table 1, extracellular DNA, transfected HEPG-2 (2.2.15) cells, read-out: HBV viron EC50 ± SD
[9] = Table 1, extracellular DNA, transfected HEPG-2 (2.2.15) cells, read-out: HBV viron EC90 ± SD
[10] = Table 1, replicative intermediates (intracellular DNA), transfected HEPG-2 (2.2.15) cells, read-out: HBV RI EC50 ± SD
[11] = Table 1, replicative intermediates (intracellular DNA), transfected HEPG-2 (2.2.15) cells, read-out: HBV RI EC90 ± SD

Chain of woodchuck hepatitis virus DNA polymerase (P03160 whole entry): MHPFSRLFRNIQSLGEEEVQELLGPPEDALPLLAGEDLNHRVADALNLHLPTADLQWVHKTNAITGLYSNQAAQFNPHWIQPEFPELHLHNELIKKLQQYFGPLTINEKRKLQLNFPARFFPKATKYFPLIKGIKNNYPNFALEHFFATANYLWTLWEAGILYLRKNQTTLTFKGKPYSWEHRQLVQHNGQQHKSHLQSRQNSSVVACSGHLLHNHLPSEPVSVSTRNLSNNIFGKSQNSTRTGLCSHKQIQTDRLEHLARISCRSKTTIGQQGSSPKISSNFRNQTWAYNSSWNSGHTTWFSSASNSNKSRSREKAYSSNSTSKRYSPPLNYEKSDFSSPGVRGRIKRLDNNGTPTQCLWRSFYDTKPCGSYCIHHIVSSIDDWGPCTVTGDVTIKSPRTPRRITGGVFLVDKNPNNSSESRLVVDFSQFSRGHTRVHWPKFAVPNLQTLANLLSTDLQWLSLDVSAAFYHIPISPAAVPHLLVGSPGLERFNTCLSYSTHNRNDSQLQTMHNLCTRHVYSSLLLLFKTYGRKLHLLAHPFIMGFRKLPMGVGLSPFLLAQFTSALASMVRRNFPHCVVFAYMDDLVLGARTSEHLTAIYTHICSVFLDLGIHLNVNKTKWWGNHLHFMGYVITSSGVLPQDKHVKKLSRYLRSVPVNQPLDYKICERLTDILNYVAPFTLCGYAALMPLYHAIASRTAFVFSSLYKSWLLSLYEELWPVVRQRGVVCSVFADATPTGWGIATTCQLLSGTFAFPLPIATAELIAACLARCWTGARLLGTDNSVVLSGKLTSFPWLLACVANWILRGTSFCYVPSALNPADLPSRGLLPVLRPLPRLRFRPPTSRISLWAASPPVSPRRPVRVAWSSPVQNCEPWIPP

## CC(=O)SCCOP(=O)(OCCSC(C)=O)OC[C@@H]1O[C@H](n2cc(C)c(=O)[nH]c2=O)C[C@H]1N=[N+]=[N-] [Bis (Sate) β-L-AZTMP]
[1]; [4]
  IC50: 200 µM
Hepatitis B virus; Table 2
  Selectivity Index IC50/EC50 RI: 25
  Selectivity Index IC50/EC50 Virion: 27
Hepatitis B virus; [5]
  EC50: 7.5 µM
Hepatitis B virus; [6]
  EC50: 8 µM

## Cc1cn([C@@H]2C[C@@H](N=[N+]=[N-])[C@H](COP(=O)(O)OP(=O)(O)OP(=O)(O)O)O2)c(=O)[nH]c1=O [β-L-AZTPP]
[2]
  IC50: 0.2 µM
Human DNA polymerase β
  Ki: > 100 µM
Human DNA polymerase α
  Ki: > 100 µM

## Nc1nc(=O)n(C2CSC(CO)O2)cc1F [(−)-β-L-FTC, (−)-β-L-2-hydroxymethyl-5-(5-fluorocytosin-1-yl)-1,3-oxathiolane, reference compound]
[1]; [7]
  IC50: 292 ± 13 µM
Hepatitis B virus; Table 1
  Selectivity Index IC50/EC90 RI: 1,622
  Selectivity Index IC50/EC90 Virion: 1,947
Hepatitis B virus; [8]
  EC50: 0.017 ± 0.005 µM
Hepatitis B virus; [9]
  EC90: 0.15 ± 0.02 µM
Hepatitis B virus; [10]
  EC50: 0.049 ± 0.008 µM
Hepatitis B virus; [11]
  EC90: 0.18 ± 0.03 µM

## Cc1cn([C@@H]2CC(N=[N+]=[N-])[C@H](CO)O2)c(=O)[nH]c1=O (stereo partly drawn) [β-L-AZT, 1-(3-Azido-2-3-dideoxy-β-L-erythro-pentofuranosyl) thymine]
[3]; Cytotoxicity IC50, Table 2, Hep G-2 (2.2.15) cells
  IC50: 1000 µM
Hepatitis B virus; Hepatitis B virus, HepG2 2.2.15, read-out: HBV RI EC50, Table 2, replicative intermediates (intracellular DNA), transfected Hep G-2 (2.2.15) cells
  EC50: > 10 µM
Hepatitis B virus; Hepatitis B virus, HepG2 2.2.15, read-out: HBV Virion EC50, Table 2, extracellular DNA, transfected Hep G-2 (2.2.15) cells
  EC50: > 10 µM

## Nc1ncnc2c1ncn2[C@@H]1CC[C@H](COP(=O)(O)OP(=O)(O)OP(=O)(O)O)O1 [β-L-ddATP]
[2]
  IC50: 2.1 µM
Human DNA polymerase β
  Ki: > 100 µM
Human DNA polymerase α
  Ki: > 100 µM

## Nc1ccn([C@@H]2CC[C@H](CO)O2)c(=O)n1 [β-L-DDC, 2′,3′-Dideoxy-β-L-cytidine]
[1]; [7]
  IC50: 493 ± 64 µM
Hepatitis B virus
  Inhibition of HBV replication (depression of HBV virion DNA and HBV RI), in words: potent inhibitors of HBV replication
Hepatitis B virus; Table 1
  Selectivity Index IC50/EC90 RI: 274
  Selectivity Index IC50/EC90 Virion: 448
Hepatitis B virus; [8]
  EC50: 0.033 ± 0.003 µM
Hepatitis B virus; [9]
  EC90: 1.1 ± 0.2 µM
Hepatitis B virus; [10]
  EC50: 0.107 ± 0.012 µM
Hepatitis B virus; [11]
  EC90: 1.8 ± 0.2 µM

## Nc1nc(=O)n([C@@H]2CC[C@H](CO)O2)cc1F [β-L-FDDC, 2′,3′-Dideoxy-β-L-5-fluorocytidine]
[1]; [7]
  IC50: 438 ± 57 µM
Hepatitis B virus
  Inhibition of HBV replication (depression of HBV virion DNA and HBV RI), in words: potent inhibitors of HBV replication
Hepatitis B virus; Table 1
  Selectivity Index IC50/EC90 RI: 91
  Selectivity Index IC50/EC90 Virion: 1,460
Hepatitis B virus; [9]
  EC90: 0.3 ± 0.03 µM
Hepatitis B virus; [10]
  EC50: 2.8 ± 0.4 µM
Hepatitis B virus; [11]
  EC90: 4.8 ± 0.6 µM

## Nc1ccn([C@@H]2CS[C@H](COP(=O)(O)OP(=O)(O)OP(=O)(O)O)O2)c(=O)n1 [Compound 3-TC-TP, reference compound]
[2]
  IC50: 1 µM
Human DNA polymerase β
  Ki: > 100 µM
Human DNA polymerase α
  Ki: > 100 µM

## Nc1nc(=O)n([C@H]2O[C@@H](CO)C[C@H]2F)cc1F [2′-F-β-L-5FDDC, 1-(2-Fluoro-2,3-dideoxy-β-L-threo-pentofuranosyl)-5-fluorocytosine]
[3]
  IC50: 210 µM
Hepatitis B virus; Hepatitis B virus, HepG2 2.2.15, read-out: HBV RI EC50
  EC50: 5 µM
Hepatitis B virus; Hepatitis B virus, HepG2 2.2.15, read-out: HBV Virion EC50
  EC50: 1.7 µM
Hepatitis B virus; Table 2
  Selectivity Index IC50/EC50 RI: 42
  Selectivity Index IC50/EC50 Virion: 124

## Nc1ncnc2c1ncn2[C@@H]1CC[C@H](CO)O1 [β-L-ddA]
[1]; [4]
  IC50: 250 µM
Hepatitis B virus; Table 2
  Selectivity Index IC50/EC50 RI: 50
  Selectivity Index IC50/EC50 Virion: 50
Hepatitis B virus; [5]
  EC50: 5 µM
Hepatitis B virus; [6]
  EC50: 5 µM

## Nc1nc(=O)n([C@@H]2CC[C@H](COP(=O)(O)OP(=O)(O)OP(=O)(O)O)O2)cc1F [β-L-5FDDCTP]
[2]
  IC50: 2 µM
Human DNA polymerase β
  Ki: > 100 µM
Human DNA polymerase α
  Ki: > 100 µM

## CC(C)(C)C(=O)SCCOP(=O)(OCCSC(=O)C(C)(C)C)OCC1CCC(n2cnc3c(N)ncnc32)O1 [Bis (Sate) β-L-ddAMP, β-L-2′,3′-Dideoxyadenosin-5′-yl bis (2-pivaloylthioethyl) phosphate]
[1]; [4]
  IC50: 200 µM
Hepatitis B virus; Table 2
  Selectivity Index IC50/EC50 RI: 571
  Selectivity Index IC50/EC50 Virion: 445
Hepatitis B virus; [5]
  EC50: 0.45 µM
Hepatitis B virus; [6]
  EC50: 0.35 µM
